# Biological target: GorB (BP1729) (Bordetella pertussis, UniProt Q7VXM2)
# Assay: NADPH oxidation followed at […] nm
# Type: biochemical
# Conditions: 0.3 mM NADPH, 8 mM GSH; GSSG generated in situ from GSH by H2O2 (0.1-2 mM); 0.1 M sodium/potassium phosphate pH 7.6, 25 °C
# Sequence of GorB (BP1729) (Q7VXM2 entry or part of it): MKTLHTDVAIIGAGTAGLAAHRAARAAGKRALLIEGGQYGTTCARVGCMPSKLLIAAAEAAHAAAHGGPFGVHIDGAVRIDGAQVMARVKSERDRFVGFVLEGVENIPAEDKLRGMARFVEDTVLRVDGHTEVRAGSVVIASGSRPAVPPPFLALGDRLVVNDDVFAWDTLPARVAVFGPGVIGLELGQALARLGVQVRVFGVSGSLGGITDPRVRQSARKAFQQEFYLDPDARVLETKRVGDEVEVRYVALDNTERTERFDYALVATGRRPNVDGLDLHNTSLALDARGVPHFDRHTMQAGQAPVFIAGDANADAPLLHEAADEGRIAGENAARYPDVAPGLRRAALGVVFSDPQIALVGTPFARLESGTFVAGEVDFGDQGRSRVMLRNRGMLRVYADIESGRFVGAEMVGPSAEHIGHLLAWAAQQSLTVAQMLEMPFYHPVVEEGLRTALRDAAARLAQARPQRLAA
compound,measurement,value
NC(=O)C1=CN([C@@H]2O[C@H](COP(=O)(O)OP(=O)(O)OC[C@H]3O[C@@H](n4cnc5c(N)ncnc54)[C@H](OP(=O)(O)O)[C@@H]3O)[C@@H](O)[C@H]2O)C=CC1 [NADPH],NADPH oxidation followed at 340 nm,Oxidation of NADPH by recombinant GorB over time
